The values below come from patent US10787444B2, “Compounds for the modulation of myc activity” (Syros Pharmaceuticals, Inc., priority 2015, dated 2020).

In assay [1] the test system is human small lung cancer cell line H2171. Put plainly: Cell Viability Assay (ATPlite). It is filed as cell-based. Particulars: Homo sapiens, NCI-H2171, 72 h, Table 2, compounds of FIG. 1; H2171 cells, three days, ATPlite; calculated IC50 class; read-out: H2171 Activity. An outline of the steps:
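H2171 cells were plated at 20,000 cells/mL and dosed immediately by pin transfer with a 10-point dose series in DMSO. After three days at 37° C, ATPlite luminescence served as the viability readout.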

The target in another assay is T1, c-Myc/Max/Ebox DNA (Homo sapiens, UniProt P01106).
T1 construct: his6 (cleaved yes)
Nature of the assay: c-Myc/Max/Ebox DNA AlphaScreen Assay. It is filed as binding. As to conditions: Table 2, compounds of FIG. 1; calculated IC50 class. An outline of the steps: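 Compounds were preincubated with free c-Myc (20 nM), biotinylated single-Ebox DNA (10 nM) and Ni acceptor beads before his6-Max (5 nM) and streptavidin donor beads were added. Buffer was 50 mM HEPES pH 8.0, 150 mM NaCl, BSA, Tween20, glycogen and DTT, with DMSO ≤2%. After 2 h incubation, AlphaScreen signal was read at 680 nm excitation and 520–620 nm emission.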

Where a name gives a salt, the structure may show the parent alone.

T1 sequence (P01106 whole entry): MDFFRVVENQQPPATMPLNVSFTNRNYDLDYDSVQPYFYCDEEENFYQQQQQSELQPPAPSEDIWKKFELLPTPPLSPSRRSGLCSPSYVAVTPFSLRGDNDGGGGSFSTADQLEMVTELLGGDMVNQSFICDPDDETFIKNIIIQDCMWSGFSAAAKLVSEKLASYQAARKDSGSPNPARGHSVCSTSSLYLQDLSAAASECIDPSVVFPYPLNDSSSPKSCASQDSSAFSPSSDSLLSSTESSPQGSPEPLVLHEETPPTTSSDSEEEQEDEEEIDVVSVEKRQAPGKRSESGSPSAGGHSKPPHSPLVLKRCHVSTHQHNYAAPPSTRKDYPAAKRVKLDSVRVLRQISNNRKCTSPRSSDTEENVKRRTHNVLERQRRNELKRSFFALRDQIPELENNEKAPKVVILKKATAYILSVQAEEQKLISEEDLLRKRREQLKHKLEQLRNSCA

For the compound `COCCNCCC(=O)Nc1sc2c(c1-c1nc3c(OC)cccc3s1)CCNC2` [Compound 613, N-(3-(4-Methoxybenzo[d]thiazol-2-yl)-4,5,6,7-tetrahydrothieno[2,3-c]pyridin-2-yl)-3-((2-methoxyethyl)amino)propanamide dihydrochloride], the IC50 was 300 to 1000 nM in assay [1] and 1000 to 10000 nM on c-Myc/Max/Ebox DNA.
The matching figures for `CC[C@H](C)NCCC(=O)Nc1sc2c(c1-c1nc3cc(-c4ccncc4)ccc3s1)CCN(C1CC1)C2` [Compound 618, (S)-3-(sec-butylamino)-N-(6-cyclopropyl-3-(5-(pyridin-4-yl)benzo[d]thiazol-2-yl)-4,5,6,7-tetrahydrothieno[2,3-c]pyridin-2-yl)propanamide]: less than 300 nM and less than 300 nM.
The matching figures for `CC[C@H](C)NCCC(=O)Nc1sc2c(c1-c1nc3ccccc3s1)CCN(C1CC(F)(F)C1)C2` [Compound 619, (S)—N-(3-(benzo[d]thiazol-2-yl)-6-(3,3-difluorocyclobutyl)-4,5,6,7-tetrahydrothieno[2,3-c]pyridin-2-yl)-3-(sec-butylamino)propanamide]: less than 300 nM and 1000 to 10000 nM.
The like results for `CCOC(=O)CCOCCOCCOCCOCCOCCOCCNCCC(=O)Nc1sc2c(c1-c1nc3ccccc3s1)CCNC2` [Compound 622, Ethyl 1-((3-(benzo[d]thiazol-2-yl)-4,5,6,7-tetrahydrothieno[2,3-c]pyridin-2-yl)amino)-1-oxo-7,10,13,16,19,22-hexaoxa-4-azapentacosan-25-oate] were, in that order, less than 300 nM and less than 300 nM.
As for `O=C(O)CCOCCOCCOCCOCCOCCOCCNCCC(=O)Nc1sc2c(c1-c1nc3ccccc3s1)CCNC2` [Compound 623], the IC50 (in assay [1]; at c-Myc/Max/Ebox DNA) was less than 300 nM each time.
With `CCC(C)NCCC(=O)Nc1sc2c(c1-c1nc3cc(-n4cnc(C)c4)ccc3s1)CCNC2` (stereo not shown) [compound 149], the IC50 (in assay [1]; on c-Myc/Max/Ebox DNA) was less than 300 nM in each case.
As to `CCC(C)NCCC(=O)Nc1sc2c(c1-c1nc3cc(-c4cccnc4)ccc3s1)CCNC2` (stereo not shown) [compound 150], the IC50 (in assay [1]; on c-Myc/Max/Ebox DNA) was less than 300 nM throughout.
As to `CCC(C)NCCC(=O)Nc1sc2c(c1-c1nc3cc(-c4cn[nH]c4)ccc3s1)CCNC2` (stereo not shown) [compound 151], the IC50 (in assay [1]; on c-Myc/Max/Ebox DNA) was less than 300 nM in each case.
On to `CC(C)NCCC(=O)Nc1sc2c(c1-c1nc3cc(-c4cnn(C)c4)ccc3s1)CCNC2` [compound 161], for which the IC50 (in assay [1]; on c-Myc/Max/Ebox DNA) was less than 300 nM each time.
Consider `CC(C)NCCC(=O)Nc1sc2c(c1-c1nc3cc(C4=CCOCC4)ccc3s1)CCNC2` [compound 165], for which the IC50 (in assay [1]; on c-Myc/Max/Ebox DNA) was less than 300 nM each time.
As to `CC(C)NCCC(=O)Nc1sc2c(c1-c1nc3cc(-n4cnc(Cl)c4)ccc3s1)CCNC2` [compound 173], the IC50 (in assay [1]; at c-Myc/Max/Ebox DNA) was less than 300 nM in each case.
With `COCCNCCC(=O)Nc1sc2c(c1-c1nc3cc(-n4cnc(C)c4)ccc3s1)CCNC2` [compound 180], the IC50 (in assay [1]; on c-Myc/Max/Ebox DNA) was less than 300 nM in each case.
For `CC(C)NCCC(=O)Nc1sc2c(c1-c1nc3cc(-c4ccc(S(C)(=O)=O)cc4)ccc3s1)CCNC2` [compound 181], the IC50 (in assay [1]; on c-Myc/Max/Ebox DNA) was less than 300 nM each time.
On to `COCCNCCC(=O)Nc1sc2c(c1-c1nc3cc(-c4cnn(C)c4)ccc3s1)CCNC2` [compound 184], for which the IC50 (in assay [1]; at c-Myc/Max/Ebox DNA) was less than 300 nM throughout.
In the case of `Cc1cn(-c2ccc3nc(-c4c(NC(=O)CCNC(C)C)sc5c4CCNC5)sc3c2)cn1` [compound 186], the IC50 (in assay [1]; on c-Myc/Max/Ebox DNA) was less than 300 nM each time.
Turning to `CC(C)NCCC(=O)Nc1sc2c(c1-c1nc3ccc(-c4ccncc4)cc3s1)CCNC2` [compound 192], the IC50 (in assay [1]; on c-Myc/Max/Ebox DNA) was less than 300 nM throughout.
`CC(C)NCCC(=O)Nc1sc2c(c1-c1nc3ccc(-c4cccnc4)cc3s1)CCNC2` [compound 193]: the IC50 (in assay [1]; on c-Myc/Max/Ebox DNA) was less than 300 nM in each case.
`CC(C)NCCC(=O)Nc1sc2c(c1-c1nc3ccc(C4=CCNCC4)cc3s1)CCNC2` [compound 194]: the IC50 (in assay [1]; at c-Myc/Max/Ebox DNA) was less than 300 nM throughout.
For the compound `CC(C)NCCC(=O)Nc1sc2c(c1-c1nc3cc(N4CCOCC4)ccc3s1)CCNC2` [compound 302], the IC50 (in assay [1]; on c-Myc/Max/Ebox DNA) was less than 300 nM throughout.
For the compound `COCCNCCC(=O)Nc1sc2c(c1-c1nc3cc(-c4ccncc4)ccc3s1)CCNC2` [compound 308], the IC50 (in assay [1]; at c-Myc/Max/Ebox DNA) was less than 300 nM throughout.
On to `COc1ccc2sc(-c3c(NC(=O)CCNC(C)C)sc4c3CCNC4)nc2c1` [compound 316], for which the IC50 (in assay [1]; at c-Myc/Max/Ebox DNA) was less than 300 nM in each case.
Take `COCCNCCC(=O)Nc1sc2c(c1-c1nc3cc(-c4ccc(C(=O)N5CCOCC5)cc4)ccc3s1)CCNC2` [compound 334]: the IC50 (in assay [1]; at c-Myc/Max/Ebox DNA) was less than 300 nM in each case.
Regarding `COCCNCCC(=O)Nc1sc2c(c1-c1nc3cc(-c4cncc(F)c4)ccc3s1)CCNC2` [compound 337], the IC50 (in assay [1]; at c-Myc/Max/Ebox DNA) was less than 300 nM in each case.
Regarding `COCCNCCC(=O)Nc1sc2c(c1-c1nc3ccc(-c4cn[nH]c4)cc3s1)CCNC2` [compound 339], the IC50 (in assay [1]; on c-Myc/Max/Ebox DNA) was less than 300 nM each time.
For the compound `COCCNCCC(=O)Nc1sc2c(c1-c1nc3cc(-c4ccnc(NC(C)=O)c4)ccc3s1)CCNC2` [compound 342], the IC50 (in assay [1]; on c-Myc/Max/Ebox DNA) was less than 300 nM each time.
Take `COCCNCCC(=O)Nc1sc2c(c1-c1nc3cc(-c4cnc(N)nc4)ccc3s1)CCNC2` [compound 345]: the IC50 (in assay [1]; at c-Myc/Max/Ebox DNA) was less than 300 nM throughout.
Consider `COCCNCCC(=O)Nc1sc2c(c1-c1nc3cc(-c4cncc(OC)c4)ccc3s1)CCNC2` [compound 349], for which the IC50 (in assay [1]; on c-Myc/Max/Ebox DNA) was less than 300 nM in each case.
Turning to `COCCNCCC(=O)Nc1sc2c(c1-c1nc3ccc(-c4cc(C)[nH]n4)cc3s1)CCNC2` [compound 355], the IC50 (in assay [1]; on c-Myc/Max/Ebox DNA) was less than 300 nM in each case.
Consider `COCCNCCC(=O)Nc1sc2c(c1-c1nc3ccc(-c4cnn(C(C)C)c4)cc3s1)CCNC2` [compound 358], for which the IC50 (in assay [1]; on c-Myc/Max/Ebox DNA) was less than 300 nM each time.
As for `COCCNCCC(=O)Nc1sc2c(c1-c1nc3ccc(-c4cc[nH]n4)cc3s1)CCNC2` [compound 361], the IC50 (in assay [1]; at c-Myc/Max/Ebox DNA) was less than 300 nM throughout.
As for `CCN(CC)c1ccc(-c2ccc3sc(-c4c(NC(=O)CCNCCOC)sc5c4CCNC5)nc3c2)cc1` [compound 365], the IC50 (in assay [1]; on c-Myc/Max/Ebox DNA) was less than 300 nM each time.
For the compound `COCCNCCC(=O)Nc1sc2c(c1-c1nc3ccc(-c4ccc(O)nc4)cc3s1)CCNC2` [compound 374], the IC50 (in assay [1]; on c-Myc/Max/Ebox DNA) was less than 300 nM in each case.
Consider `COCCNCCC(=O)Nc1sc2c(c1-c1nc3ccc(-c4ccc(C#N)nc4)cc3s1)CCNC2` [compound 391], for which the IC50 (in assay [1]; on c-Myc/Max/Ebox DNA) was less than 300 nM in each case.
In the case of `COCCNCCC(=O)Nc1sc2c(c1-c1nc3cc(-c4cccc(C(=O)N(C)C)c4)ccc3s1)CCNC2` [compound 394], the IC50 (in assay [1]; on c-Myc/Max/Ebox DNA) was less than 300 nM each time.
Consider `COCCNCCC(=O)Nc1sc2c(c1-c1nc3cc(-c4cnc(OC)nc4)ccc3s1)CCNC2` [compound 404], for which the IC50 (in assay [1]; on c-Myc/Max/Ebox DNA) was less than 300 nM in each case.
Turning to `COCCNCCC(=O)Nc1sc2c(c1-c1nc3cc(-c4ccc(C#N)nc4)ccc3s1)CCNC2` [compound 405], the IC50 (in assay [1]; on c-Myc/Max/Ebox DNA) was less than 300 nM in each case.
Turning to `COCCNCCC(=O)Nc1sc2c(c1-c1nc3cc(-c4ccn[nH]4)ccc3s1)CCNC2` [compound 406], the IC50 (in assay [1]; on c-Myc/Max/Ebox DNA) was less than 300 nM each time.
In the case of `COCCNCCC(=O)Nc1sc2c(c1-c1nc3cc(-c4ccc(C(=O)OC)nc4)ccc3s1)CCNC2` [compound 409], the IC50 (in assay [1]; at c-Myc/Max/Ebox DNA) was less than 300 nM each time.
On to `COCCNCCC(=O)Nc1sc2c(c1-c1nc3cc(-c4ccnc(N)c4)ccc3s1)CCNC2` [compound 433], for which the IC50 (in assay [1]; on c-Myc/Max/Ebox DNA) was less than 300 nM in each case.
As for `COCCNCCC(=O)Nc1sc2c(c1-c1nc3cc(-c4cncc(N)c4)ccc3s1)CCNC2` [compound 443], the IC50 (in assay [1]; on c-Myc/Max/Ebox DNA) was less than 300 nM each time.
Turning to `CCOC(=O)Cn1cc(-c2ccc3sc(-c4c(NC(=O)CCNCCOC)sc5c4CCNC5)nc3c2)cn1` [compound 445], the IC50 (in assay [1]; at c-Myc/Max/Ebox DNA) was less than 300 nM throughout.
With `COCCNCCC(=O)Nc1sc2c(c1-c1nc3ccc(-c4ccnc(F)c4)cc3s1)CCNC2` [compound 456], the IC50 (in assay [1]; at c-Myc/Max/Ebox DNA) was less than 300 nM in each case.
With `COCCNCCC(=O)Nc1sc2c(c1-c1nc3cc(-c4ccnc(F)c4)ccc3s1)CCNC2` [compound 458], the IC50 (in assay [1]; at c-Myc/Max/Ebox DNA) was less than 300 nM in each case.
With `COCCNCCC(=O)Nc1sc2c(c1-c1nc3ccc(C4=CCNCC4)cc3s1)CCNC2` [compound 459], the IC50 (in assay [1]; at c-Myc/Max/Ebox DNA) was less than 300 nM throughout.
Regarding `COCCNCCC(=O)Nc1sc2c(c1-c1nc3cc(-c4cnn(C(C)C)c4)ccc3s1)CCNC2` [compound 465], the IC50 (in assay [1]; at c-Myc/Max/Ebox DNA) was less than 300 nM in each case.
`COCCNCCC(=O)Nc1sc2c(c1-c1nc3ccc(-c4cnoc4)cc3s1)CCNC2` [compound 469]: the IC50 (in assay [1]; on c-Myc/Max/Ebox DNA) was less than 300 nM each time.
In the case of `COCCNCCC(=O)Nc1sc2c(c1-c1nc3cc(-c4cnoc4)ccc3s1)CCNC2` [compound 481], the IC50 (in assay [1]; at c-Myc/Max/Ebox DNA) was less than 300 nM each time.
